Reference: ChEMBL document CHEMBL5518227, “Discovery of JNJ-1802, a First-in-Class Pan-Serotype Dengue Virus NS4B Inhibitor” (J Med Chem, 2024)

Columns and labels:
[1] = Clearance in Sprague-Dawley rat at 2.5 mg/kg, iv measured after 24 hrs by LC-MS/MS analysis; type: ADME, organism-based; conditions: in vivo
[2] = Mutagenicity in Salmonella typhimurium TA98 in presence or absence of S9 fraction pretreated for 90 mins measured after 48 hrs in dark by AMES test; type: toxicity; conditions: salmonella enterica subsp. enterica serovar typhimurium, s9, 49.5 h; time 2970 min
[3] = system: mouse P-gp; assay: Efflux ratio of permeability from basolateral to apical side over apical to basolateral side in pig LLC-PK1 cells transfected with mouse P-gp at 1 uM measured upto 120 mins; type: ADME, cell-based, Sus scrofa
[4] = Oral bioavailability in Sprague-Dawley rat at 10 mg/kg measured after 24 to 48 hrs by LC-MS/MS analysis; type: ADME, organism-based; conditions: in vivo, time 24-48 hrs
[5] = Volume of distribution at steady state in CD-1 mouse at 2.5 mg/kg, iv measured upto 24 hrs by LC-MS/MS analysis; type: ADME, organism-based; conditions: in vivo, read-out: Vdss
[6] = Clearance in CD-1 mouse at 2.5 mg/kg, iv measured upto 24 hrs by LC-MS/MS analysis; type: ADME, organism-based; conditions: in vivo
[7] = Mutagenicity in Salmonella typhimurium TA7001 in presence or absence of S9 fraction pretreated for 90 mins measured after 48 hrs in dark by AMES test; type: toxicity; conditions: salmonella enterica subsp. enterica serovar typhimurium, s9, 49.5 h; time 2970 min
[8] = Cmax in 8 hrs fasted cynomolgus monkey assessed as liver blood flow at 3 mg/kg, po measured upto 24 hrs by LC-MS/MS analysis; type: ADME, organism-based, Macaca fascicularis; conditions: in vivo
[9] = Volume of distribution at steady state in Sprague-Dawley rat at 2.5 mg/kg, iv measured after 24 hrs by LC-MS/MS analysis; type: ADME, organism-based; conditions: in vivo, read-out: Vdss
[10] = biological target: Cytochrome P450 2C9 (Homo sapiens, UniProt P11712); assay: Inhibition of human CYP2C9 preincubated for 5 mins followed by NADPH addition measured after 5 to 30 mins by LC-MS analysis; type: ADME
Sequence of Cytochrome P450 2C9 (P11712 whole entry): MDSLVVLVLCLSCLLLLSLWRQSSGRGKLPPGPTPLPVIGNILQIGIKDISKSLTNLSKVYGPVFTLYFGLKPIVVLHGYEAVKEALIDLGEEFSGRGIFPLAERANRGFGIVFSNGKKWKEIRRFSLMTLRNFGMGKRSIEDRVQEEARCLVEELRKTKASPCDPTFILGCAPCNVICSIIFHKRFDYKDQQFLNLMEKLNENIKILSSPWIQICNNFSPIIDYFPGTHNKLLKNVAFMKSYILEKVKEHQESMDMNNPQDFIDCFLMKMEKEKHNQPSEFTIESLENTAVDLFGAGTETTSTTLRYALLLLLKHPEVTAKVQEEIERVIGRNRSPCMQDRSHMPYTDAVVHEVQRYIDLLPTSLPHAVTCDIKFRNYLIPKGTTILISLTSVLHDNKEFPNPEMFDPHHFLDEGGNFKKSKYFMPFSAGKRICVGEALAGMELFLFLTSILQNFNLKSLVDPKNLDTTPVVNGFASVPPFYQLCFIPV

[11] = Elimination half life in CD-1 mouse at 2.5 mg/kg, iv measured upto 24 hrs by LC-MS/MS analysis; type: ADME, organism-based; conditions: in vivo, read-out: beta t1/2 (converted)
[12] = Cmax in Sprague-Dawley rat at 10 mg/kg, po measured after 24 to 48 hrs by LC-MS/MS analysis; type: ADME, organism-based; conditions: in vivo, time 24-48 hrs
[13] = Clearance in 8 hrs fasted cynomolgus monkey at 1 mg/kg, iv measured upto 24 hrs by LC-MS/MS analysis; type: ADME, organism-based, Macaca fascicularis; conditions: in vivo
[14] = system: mouse P-gp; assay: Apparent permeability across apical to basolateral side in pig LLC-PK1 cells transfected with mouse P-gp at 1 uM measured upto 120 mins; type: ADME, cell-based, Sus scrofa
[15] = Metabolic stability in rat hepatocytes assessed as intrinsic clearance measured per million cells incubated upto 120 mins by LC-MS/MS analysis; type: ADME, cell-based, Hepatocyte; conditions: read-out: CLH
[16] = Metabolic stability in human liver microsomes assessed as intrinsic clearance preincubated for 5 mins followed by NADPH addition measured upto 60 mins by LC-MS/MS analysis; type: ADME, Microsome; conditions: time < 65 min, read-out: CLH
[17] = Elimination half life in 8 hrs fasted cynomolgus monkey assessed as liver blood flow at 1 mg/kg, iv measured upto 24 hrs by LC-MS/MS analysis; type: ADME, organism-based, Macaca fascicularis; conditions: in vivo, read-out: beta t1/2 (converted)
[18] = Mutagenicity in Salmonella typhimurium TA7003 in presence or absence of S9 fraction pretreated for 90 mins measured after 48 hrs in dark by AMES test; type: toxicity; conditions: salmonella enterica subsp. enterica serovar typhimurium, s9, 49.5 h; time 2970 min
[19] = Clearance in overnight fasted Beagle dog assessed as liver blood flow at 0.51 mg/kg, iv measured upto 24 hrs by LC-MS/MS analysis; type: ADME, organism-based, Canis lupus familiaris; conditions: in vivo
[20] = Mutagenicity in Salmonella typhimurium TA7005 in presence or absence of S9 fraction pretreated for 90 mins measured after 48 hrs in dark by AMES test; type: toxicity; conditions: salmonella enterica subsp. enterica serovar typhimurium, s9, 49.5 h; time 2970 min
[21] = Clearance in Sprague-Dawley rat assessed as liver blood flow at 2.5 mg/kg, iv measured after 24 hrs by LC-MS/MS analysis; type: ADME, organism-based; conditions: in vivo
[22] = biological target: Cytochrome P450 3A5 (Homo sapiens, UniProt P20815); assay: Inhibition of human CYP3A5 preincubated for 5 mins followed by NADPH addition measured after 5 to 30 mins by LC-MS analysis; type: ADME; conditions: time 10-35 min
Sequence of Cytochrome P450 3A5 (P20815 whole entry): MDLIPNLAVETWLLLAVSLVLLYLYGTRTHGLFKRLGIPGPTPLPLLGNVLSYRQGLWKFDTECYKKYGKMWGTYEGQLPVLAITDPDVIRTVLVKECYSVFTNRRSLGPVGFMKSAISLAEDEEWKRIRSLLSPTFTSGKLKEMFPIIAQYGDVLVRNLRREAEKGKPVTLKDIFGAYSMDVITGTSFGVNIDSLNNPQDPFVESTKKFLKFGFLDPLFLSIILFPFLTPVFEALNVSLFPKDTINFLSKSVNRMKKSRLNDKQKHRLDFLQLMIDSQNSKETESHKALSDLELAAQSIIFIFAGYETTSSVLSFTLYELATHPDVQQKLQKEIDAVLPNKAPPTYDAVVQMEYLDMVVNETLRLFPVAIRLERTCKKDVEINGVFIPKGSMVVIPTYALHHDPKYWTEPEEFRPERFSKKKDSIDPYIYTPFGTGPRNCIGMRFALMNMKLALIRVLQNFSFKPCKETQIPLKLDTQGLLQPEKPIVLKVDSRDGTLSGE

[23] = system: dengue virus type 1; assay: Antiviral activity against DENV-1 TC974#666 infected in african green monkey Vero cells incubated for 24 hrs measured after 3 days post infection by RT-PCR analysis; type: functional, organism-based; conditions: Dengue virus, TC974#666, Vero; read-out: EC50
[24] = Chromatographic hydrophobicity index, log D of the compound at pH 7.4 by LC/MS analysis; type: physicochemical; conditions: buffer
[25] = biological target: Cytochrome P450 3A4 (Homo sapiens, UniProt P08684); assay: Inhibition of human CYP3A4 preincubated for 5 mins followed by NADPH addition measured after 5 to 30 mins by LC-MS analysis; type: ADME; conditions: time 10-35 min
Sequence of Cytochrome P450 3A4 (P08684 whole entry): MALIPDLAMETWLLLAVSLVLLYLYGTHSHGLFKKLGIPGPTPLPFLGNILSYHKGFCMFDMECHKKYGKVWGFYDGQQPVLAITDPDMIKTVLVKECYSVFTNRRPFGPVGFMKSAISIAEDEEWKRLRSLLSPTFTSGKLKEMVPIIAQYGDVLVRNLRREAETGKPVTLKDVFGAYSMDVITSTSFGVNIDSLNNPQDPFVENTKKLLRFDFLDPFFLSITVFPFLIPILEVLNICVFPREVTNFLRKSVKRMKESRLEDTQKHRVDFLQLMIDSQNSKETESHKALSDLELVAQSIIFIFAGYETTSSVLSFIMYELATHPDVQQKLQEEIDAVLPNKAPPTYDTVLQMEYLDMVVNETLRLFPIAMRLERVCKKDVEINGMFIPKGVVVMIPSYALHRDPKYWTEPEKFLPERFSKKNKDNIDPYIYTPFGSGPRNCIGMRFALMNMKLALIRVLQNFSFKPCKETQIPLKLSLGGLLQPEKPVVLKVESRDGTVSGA

[26] = Metabolic stability in cynomolgus monkey hepatocytes assessed as intrinsic clearance measured per million cells incubated upto 120 mins by LC-MS/MS analysis; type: ADME, cell-based, Macaca fascicularis, Hepatocyte; conditions: read-out: CLH
[27] = system: dengue virus type 2; assay: In vivo antiviral activity against DENV-2/RL infected in AG129 mouse assessed as increase in efficacy administered as po bid for 3 days; type: functional, organism-based; conditions: dose 0.2-60 mg/kg/day, time 3.0 day
[28] = biological target: Cytochrome P450 2D6 (Homo sapiens, UniProt P10635); assay: Inhibition of human CYP2D6 preincubated for 5 mins followed by NADPH addition measured after 5 to 30 mins by LC-MS analysis; type: ADME
Sequence of Cytochrome P450 2D6 (P10635 whole entry): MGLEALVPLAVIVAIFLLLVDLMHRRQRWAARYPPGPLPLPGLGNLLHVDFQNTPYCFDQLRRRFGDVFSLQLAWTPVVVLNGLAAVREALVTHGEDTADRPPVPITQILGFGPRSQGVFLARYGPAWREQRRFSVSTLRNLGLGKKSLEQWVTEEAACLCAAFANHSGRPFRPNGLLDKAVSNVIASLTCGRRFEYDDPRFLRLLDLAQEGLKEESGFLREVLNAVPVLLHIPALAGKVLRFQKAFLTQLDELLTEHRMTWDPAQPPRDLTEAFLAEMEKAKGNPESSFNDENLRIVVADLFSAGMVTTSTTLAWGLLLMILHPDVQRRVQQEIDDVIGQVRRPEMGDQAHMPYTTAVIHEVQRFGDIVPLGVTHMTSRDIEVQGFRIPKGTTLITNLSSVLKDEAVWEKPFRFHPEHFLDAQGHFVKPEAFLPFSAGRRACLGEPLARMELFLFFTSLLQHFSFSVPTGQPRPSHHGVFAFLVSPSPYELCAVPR

[29] = AUC in CD-1 mouse at 10 mg/kg, po measured upto 24 hrs by LC-MS/MS analysis; type: ADME, organism-based; conditions: in vivo
[30] = Oral bioavailability in overnight fasted Beagle dog at 2.37 mg/kg measured upto 24 hrs by LC-MS/MS analysis; type: ADME, organism-based, Canis lupus familiaris; conditions: in vivo
[31] = Cmax in CD-1 mouse at 10 mg/kg, po measured upto 24 hrs by LC-MS/MS analysis; type: ADME, organism-based; conditions: in vivo
[32] = Cmax in overnight fasted Beagle dog at 2.37 mg/kg, po measured upto 24 hrs by LC-MS/MS analysis; type: ADME, organism-based, Canis lupus familiaris; conditions: in vivo

**Q.** With COc1cc(N[C@H](C(=O)c2c[nH]c3ccc(OC(F)(F)F)cc23)c2ccc(Cl)cc2OC)cc(S(C)(=O)=O)c1 [MOSNODENVIR] as the molecule, how does the clearance [1] read?
**A.** The clearance was 0.294 L/h/kg.

**Q.** What about the Activity [2] of the same molecule?
**A.** The Activity was “Non-Toxic”.

**Q.** And the efflux ratio at 2 h, 1 µM [3]?
**A.** The efflux ratio at 2 h, 1 µM was roughly 4.

**Q.** What about the bioavailability [4] of the same molecule?
**A.** The bioavailability was 58%.

**Q.** And the Vd [5]?
**A.** The Vd was 2.5 L/kg.

**Q.** What about the clearance [6] of the same molecule?
**A.** Its clearance is 0.298 L/h/kg.

**Q.** What about the Activity [7] of the same molecule?
**A.** The Activity was “Non-Toxic”.

**Q.** And the Cmax [8]?
**A.** Its Cmax is 0.613 µg/mL.

**Q.** What about the Vd [9] of the same molecule?
**A.** The Vd was 4.6 L/kg.

**Q.** And the IC50 [10]?
**A.** The IC50 was 3.7 µM.

**Q.** And the half-life [11]?
**A.** Its half-life is 6.2 h.

**Q.** And the Cmax [12]?
**A.** The Cmax was 0.629 µg/mL.

**Q.** And the clearance [13]?
**A.** Its clearance is 0.147 L/h/kg.

**Q.** What about the Papp A→B at 2 h, 1 µM [14] of the same molecule?
**A.** The Papp A→B at 2 h, 1 µM was 10 nm/s.

**Q.** And the hepatocyte CLint [15]?
**A.** The hepatocyte CLint was less than 1.9 µL/min/1e6 cells.

**Q.** What about the microsomal CLint [16] of the same molecule?
**A.** Its microsomal CLint is less than 8 µL/min/mg.

**Q.** And the half-life [17]?
**A.** Its half-life is 9.57 h.

**Q.** And the Activity [18]?
**A.** The Activity was “Non-Toxic”.

**Q.** What about the LBF [19] of the same molecule?
**A.** Its LBF is 21%.

**Q.** What about the Activity [20] of the same molecule?
**A.** Its Activity is “Non-Toxic”.

**Q.** What about the LBF [21] of the same molecule?
**A.** The LBF was 7%.

**Q.** And the “inhibition (INH)” value [22]?
**A.** Its value is “Not Active”.

**Q.** What about the EC50 [23] of the same molecule?
**A.** The EC50 was 0.0002 µM.

**Q.** And the “Chromatographic log D at pH 7.4” value [24]?
**A.** The value was 3.94.

**Q.** What about the “inhibition (INH)” value [25] of the same molecule?
**A.** Its value is “Not Active”.

**Q.** What about the hepatocyte CLint [26] of the same molecule?
**A.** Its hepatocyte CLint is less than 1.9 µL/min/1e6 cells.

**Q.** What about the Activity [27] of the same molecule?
**A.** The Activity was “Dose-Dependent Effect”.

**Q.** And the IC50 [28]?
**A.** Its IC50 is greater than 30 µM.

**Q.** And the AUC at 24 h [29]?
**A.** The AUC at 24 h was 35.6 µg·h/mL.

**Q.** And the bioavailability [30]?
**A.** Its bioavailability is 51%.

**Q.** What about the Cmax [31] of the same molecule?
**A.** Its Cmax is 2.73 µg/mL.

**Q.** What about the Cmax [32] of the same molecule?
**A.** Its Cmax is 0.362 µg/mL.
